Measured values from patent US5527778A, “Method for selective opening of abnormal brain tissue capillaries” (priority 1995, dated 1996).
Residues, ends and D or L forms follow the SMILES beside them.

Experiments:
[1] = tested on: brain tumor capillaries; settings: intracarotid infusion of LTC4; cited from earlier work
[2] = tested on: RG-2 glioma; experiment: Regional permeability (unidirectional transfer constant Ki) by quantitative autoradiography after intracarotid infusion; assay type: in vivo, Wistar rats
Experimental: An experimental brain tumor model was made using female Wistar rats and RG-2 glioma cells. The RG-2 glioma cell line was maintained in a monolayer culture in F12 medium with 10% calf serum. Female Wistar rats, each weighing 150 to 250 gm were anesthetized with intra peritoneal pentobarbital (30 mg/kg). Glial tumors were implanted into the right hemisphere by intracerebral injections of 1×10^5 RG-2 glioma cells in five μl of 1.2% methyl cellulose (F12 medium). One week after tumor implantation, the rats were used for the brain tumor model.
The rats were divided into two groups: a bradykinin group treated with intracarotid infusion of 10 […] of bradykinin or the control group treated with intracarotid infusion of saline. The effect of intracarotid infusion of bradykinin was compared to saline infusions by statistical analysis of the Ki values using ANOVA and Students T-Tests.
(§1) [^14 C] AIB and [^14 C] dextran were used for quantitative autoradiographic examination of regional permeability. One week after tumor implantation, the rats were again anesthetized and a polyethylene (PE-10) catheter was inserted retrograde throughout the external carotid artery to the common carotid artery bifurcation ipsilateral to the tumor. The external carotid artery was then ligated. One femoral artery was cannulated to monitor systemic blood pressure and the other femoral artery was cannulated to withdraw arterial blood. Body temperature was maintained at […] and arterial blood gas levels, blood pressure, hematocrit were monitored. Animals with abnormal physiological parameters were eliminated. After rat preparation, bradykinin (10 μg/kg/min in saline) or saline as control was infused into the right carotid artery at a rate of 53.3 μ/min for 15 minutes. Five minutes after the start of the intracarotid infusion, 100 μCi/Kg of the tracer was injected as an intravenous bolus. A peristaltic withdrawal pump was used to withdraw femoral arterial blood at a constant rate of 0.083 ml/min immediately after injection of tracer for determination of serum radioactivity. Fifteen minutes after the start of intracarotid infusions, the animals were killed by decapitation and the brains were rapidly removed and frozen.
Autoradiography was conducted as follows: the frozen brains were mounted onto pedestals with M-1 embedding matrix, and 20 μm coronal sections were cut into a cryotome. The sections were thawmounted onto cover slips, and autoradiograms were generated by coexposing the sections on Kodak XAR-5 film with tissue-calibrated ^14 C standards for 2 weeks. The sequential section was stained with hematoxylin for correlation of areas of histologically verified tumor with autoradiograms. The regional radioactivities were measured in tumor, brain surrounding the tumor (BST; areas at around 2 mm distance from the border of the tumor), ipsilateral cortex to tumor (ipsi cortex), contralateral cortex (contra cortex), ipsilateral white matter (ipsi WM), contralateral WM (contra WM), ipsilateral basal ganglia (ipsi BGG), and contralateral BGG (contra BGG). Quantitative analysis of the regional radioactivity was performed using a computer (Macintosh II) with a scanner (UMAX UC630) and the software, Image 1.45 (NIH). […]
The frozen brains were mounted onto pedestals with M-1 embedding matrix, and 20 μm coronal sections were cut with a cryotome. The sections were thaw-mounted onto cover slips, and autoradiograms were generated by co-exposing the sections on Kodak XAR-5 film with tissue-calibrated ^14 C standards for 2 weeks. The sequential section was stained with hematoxylin for correlation of areas of histologically verified tumor with autoradiograms. The regional radioactivity was measured in tumor, brain surrounding the tumor (BST; areas within 2 mm distance from the border of the tumor), ipsilateral cortex to tumor, contralateral cortex, ipsilateral white matter (WM), contralateral WM, ipsilateral basal ganglia (BG), and contralateral BG. […]

[3] = tested on: RG-2 glioma; experiment: Blood volume in brain and tumor by graphic method using [14C] dextran; assay type: in vivo, Wistar rats; settings: intracarotid bradykinin infusion
Experimental: The blood volume for the quantitative examination of permeability was calculated with a graphic method using [^14 C] dextran (MW 70,000). The blood volume in normal brain tissue and tumors were 4.5 and 9.15 μ/g, respectively (FIG. 1). The slopes were the unidirectional transfer constants, the Ki values (μl/g/min), in the two groups. […] The tumor blood volume was almost twice that of the normal brain tissue, but the brain and tumor blood volumes were not altered by intracarotid bradykinin infusion.
RMP-7 (at 1.5 μg/kg) or vehicle (control) was infused into the right carotid artery at a volume rate of 0.8 ml over 15 minutes (i.e. 53 μ/min). In blood volume studies, 100 μCi/kg of [^14 C] dextran was injected as an intravenous bolus at either 5, 10, 14 or 14.5 minutes after the start of the intracarotid infusion to make the circulation time of dextran 10, 5, 1, 0.5 minutes, respectively. […] A peristaltic withdrawal pump was used to withdraw femoral arterial blood at a constant rate of 0.083 ml/min immediately after the injection of the tracer for the determination of serum radioactivity. […]
The blood volume for the quantitative examination of permeability was calculated with a graphic method using [^14 C] dextran. […] Ki was similar in these experiments whether calculated using the graphic method or the method described by Ohno (25) and Ziylan (26).

[4] = parameters: species or system rats; settings: rat, in vivo
Experimental: At infusion rates greater than 20 μg/kg/min the systemic blood pressure in the rats was reduced.
as §1
One week after tumor implantation, the rats were again anesthetized and a polyethylene (PE-10) catheter was inserted retrograde through the external carotid artery to the common carotid artery bifurcation ipsilateral to the tumor. The external carotid artery was then ligated. […] Body temperature was maintained at 37° C. and arterial blood gases, blood pressure, and hematocrit were monitored. […]
RMP-7 infused at a rate greater than 1.0 μg/kg/min (dissolved in phosphate buffer, pH 7.4) reduced systemic blood pressure in rats when given either intravenously or into the carotid artery. […] Physiological parameters, which included arterial blood pH, PaO2, were also monitored.

[5] = tested on: RG-2 glioma; experiment: Microscopic analysis with intravenously injected horseradish peroxidase (HRP); assay type: in vivo, Wistar rats
Experimental: Microscopic analysis was performed using intravenously injected horseradish peroxidase (HRP) as described in (22). After rat preparation as previously described, bradykinin (10 μg/kg/min in saline) or saline as a control was injected into the fight carotid artery for 15 minutes. Five minutes after the start of the intracarotid infusion, 20 mg/100 g of horseradish peroxidase (HRP) was injected by an intravenous bolus. Ten minutes after the HRP injection, rats were perfused with a mixture of 2% glutaraldehyde and 2% formaldehyde in 0.1 sodium phosphate buffer solution at pH 7.4 through the heart. After fixation, the brains were removed and cut at 40 μm thickness on a vibratome. The sections were preincubated for 15 minutes at room temperature in the medium consisting of 10 ml 0.05 M-Tris-HCl buffer (pH 7.4), 3,3'-diaminobenzidine tetrahydrochloride and 0.02% hydrogen peroxide (Sigma). The sections were trimmed down to the areas of interests, post-fixed for 2 hours in 2% osmium tetroxide with 0.1M sodium phosphate, dehydrated, and embedded in plastic. Plastic sections 1 μm thick were observed under light microscopy.

[6] = tested on: RG-2 glioma; experiment: Evans blue (EB-albumin) staining of tumor and brain after intracarotid infusion; assay type: in vivo, Wistar rats; settings: intracarotid bradykinin infusion; 2 ml/kg of 2% EB i.v.
Experimental: After the intracarotid bradykinin infusion, the rat was perfused with 200 ml of phosphate buffer through the heart to wash out the remaining EB from the vessels. The brains were removed immediately and cut as coronal sections.
Since EB binds to serum albumin (MW 67,000) in blood and distributes with albumin in vivo, EB staining in the tissue indicates the distribution of albumin (4). In order to observe the extravasated EB and not the EB remaining in the vessels in the brain, the blood from the brain was washed out by perfusing the rats with phosphate buffer from the heart.
Six rats were used to examine whether RMP-7 could selectively deliver albumin to tumors. Evans blue (EB) was injected intravenously instead of radiolabeled tracers. After the preparation of rats, 2 ml/kg of 2% EB was injected intravenously instead of radiolabeled tracers. After the intracarotid RMP-7 (n=3) or vehicle (n=3) infusion, the rat was perfused with 200 ml of phosphate buffer through the heart to wash out the remaining EB from the vessels. The brains were removed immediately and cut as coronal sections.

[7] = tested on: brain capillary endothelial cells; settings: nanomolar concentrations of bradykinin; cited from earlier work
[8] = rat, in vivo; cited from earlier work
[9] = tested on: normal brain capillary; settings: in vivo; cited from earlier work
[10] = tumor, intracarotid bradykinin 10 μg/kg/min vs saline

In the case of `CCCCC/C=C\C\C=C/C=C/C=C/[C@@H](SC[C@H](NC(=O)CC[C@H](N)C(=O)O)C(=O)NCC(=O)O)[C@@H](O)CCCC(=O)O` [LTC4, leukotriene C4], the “Effect on capillary permeability” value [1] is given as “selectively increases the permeability in brain tumor capillaries without affecting the permeability in normal brain capillaries”.

For `NC(N)=NCCC[C@H](NC(=O)[C@H](Cc1ccccc1)NC(=O)[C@@H]1CCCN1C(=O)[C@H](CO)NC(=O)[C@H](Cc1ccccc1)NC(=O)CNC(=O)[C@@H]1CCCN1C(=O)[C@@H]1CCCN1C(=O)[C@@H](N)CCCN=C(N)N)C(=O)O` [bradykinin] (H-RPPGFSPFR-OH), the “Ki value of the brain surrounding tumor (BST) for [14C] AIB” value ([2]; BST, 2 mm from tumor border, intracarotid bradykinin 10 μg/kg/min) was 3.50 ± 1.29 µL/g/min, the “Ki values of brain regions without tumor, treated vs control” value ([2]; normal brain regions, intracarotid bradykinin 10 μg/kg/min) was “no significant differences” and the “Ki value of the tumors for [14C] AIB (MW 103)” value ([2]; tumor, intracarotid bradykinin 10 μg/kg/min for 15 min) was 25.91 ± 6.78 µL/g/min. For the same molecule, the “Ki value of the tumors for [14C] dextran (MW 70,000)” value ([2]; tumor, intracarotid bradykinin 10 μg/kg/min for 15 min, mean±SD) was 17.84 ± 1.00 µL/g/min, the “Ki of tumors for [14C] AIB, fold higher than control group” value [2, 10] was 1.8 fold and the “Ki of tumors for [14C] dextran, fold higher than control group” value [2, 10] was 12 fold. The “Brain and tumor blood volumes, change by infusion” value [3] was “not altered”, the “Effect on systemic blood pressure” value [4] was “did not alter systemic blood pressure” and the “Infusion rate at which systemic blood pressure was reduced” value [4] was “greater than 20 μg/kg/min”. For the same molecule, the “HRP extravasation in normal brain” value ([5]; normal brain, bradykinin 10 μg/kg/min intracarotid) was “no extravasation of HRP between cells”, the “HRP stain in tumor” value ([5]; tumor, bradykinin 10 μg/kg/min intracarotid 15 min) was “well recognized in the extracellular space between tumor cells” and the Evans blue staining [6] was “well recognized in the tumor but not in the normal brain”. For the same molecule, the “Stimulation of uptake of Lucifer yellow” value [7] was 40%, the “Degradation of bradykinin in rats, time” value [8] was “several hours” and the “HRP around normal brain capillary at high dose” value [9] was “caused intravasation of HRP around the normal brain capillary”.

For `C[C@H](CS)C(=O)N1CCC[C@H]1C(=O)O` [captopril], the “Systemic pressure when intravenous captopril infusion was used to enhance bradykinin effect” value ([4]; iv) was “hypotension occurred”.
